Data taken from patent US7064124B2, “NF-κB inhibitor containing substituted benzoic acid derivative as active ingredient” (Daiichi Suntory Pharma Co., Ltd., priority 2001, dated 2006).

Test system: NF-κB
Test: NF-κB luciferase reporter assay in A549/NF-κBLuc cells stimulated with IL-1β
Assay type: cell-based, human
Details: Homo sapiens, A549, A549/NF-κBLuc cells; compound added 1 hour before IL-1β, then 3 hours incubation; luciferase activity; read-out: NF-κB Inhibitory Activity (IC50)
Procedure: Effect on Human Lung Cancer-Derived Cell A549 (A549/NF-κBluc) Containing Stably Introduced Luciferase Plasmid (pNFκB-Luc, Stratagene. U.S.A.) Regulated by NF-κB Binding Sequence
Using Lipofectamine (Lifetech Oriental, Tokyo), pNFκB-Luc and pSV2neo (Clontech, U.S.A.) were co-transfected into the A549 cell (ATCC CCL185) and G418 sulfate (1 mg/ml, Lifetech Oriental) was added to the culture medium to select cells containing stably introduced pNFκB-Luc A549/NF-κBLuc.
The compound obtained in Examples each was added to A549/NF-κBLuc and one hour after that, IL-1β capable of activating NF-κB was added. The incubation was further continued for 3 hours.
NF-κB Inhibitory Activity (IC50) of Substituted Benzoic Acid Derivitives: […]

IC50	Compound
20 µM	COC1=C(OC)C(=O)C(Cc2ccc(O)c(C(=O)Nc3ccc(Cl)cc3)c2)=C(C)C1=O [Example 117]
8.3 µM	COC1=C(OC)C(=O)C(Cc2ccc(O)c(C(=O)Nc3ccc(N4CCOCC4)cc3)c2)=C(C)C1=O [Example 118, N-[5-(5,6-Dimethoxy-3-methyl-1,4-benzoquinon-2-yl)methyl-2-hydroxybenzoyl]-4-morpholinoaniline]
13 µM	COC1=C(OC)C(=O)C(Cc2ccc(O)c(C(=O)Nc3ccc(C#N)cc3)c2)=C(C)C1=O [Example 119, N-[5-(5,6-Dimethoxy-3-methyl-1,4-benzoquinon-2-yl)methyl-2-hydroxybenzoyl]-4-cyanoaniline]
1.7 µM	COC1=C(OC)C(=O)C(Cc2ccc(O)c(C(=O)Nc3ccc(C(F)(F)F)cc3)c2)=C(C)C1=O [Example 120, N-[5-(5,6-Dimethoxy-3-methyl-1,4-benzoquinon-2-yl)methyl-2-hydroxybenzoyl]-4-trifluoromethylaniline]
64 µM	COC1=C(OC)C(=O)C(Cc2ccc(O)c(C(=O)Nc3cc(C(F)(F)F)cc(C(F)(F)F)c3)c2)=C(C)C1=O [Example 121, N-[5-(5,6-Dimethoxy-3-methyl-1,4-benzoquinon-2-yl)methyl-2-hydroxybenzoyl]-3,5-bistrifluoromethylaniline]
46 µM	COC1=C(OC)C(=O)C(Cc2ccc(Oc3ccccc3)c(C(=O)N3CCCc4ccccc43)c2)=C(C)C1=O [Example 124, N-[5-(5,6-Dimethoxy-3-methyl-1,4-benzoquinon-2-yl)methyl-2-phenoxybenzoyl]-1,2,3,4-tetrahydroquinoline]
19 µM	COC1=C(OC)C(=O)C(Cc2ccc(Oc3ccccc3)c(C(=O)N3CCCCC3C)c2)=C(C)C1=O (stereo not drawn) [Example 125, N-[5-(5,6-Dimethoxy-3-methyl-1,4-benzoquinon-2-yl)methyl-2-phenoxybenzoyl]-2-methylpiperidine]
24 µM	COC1=C(OC)C(=O)C(Cc2ccc(OCc3cccnc3)c(C(=O)N3CCCc4ccccc43)c2)=C(C)C1=O [Example 126, N-[5-(5,6-Dimethoxy-3-methyl-1,4-benzoquinon-2-yl)methyl-2-(3-pyridylmethyloxy)benzoyl]-1,2,3,4-tetrahydroquinoline]
24 µM	COC1=C(OC)C(=O)C(Cc2ccc(OCc3cccnc3)c(C(=O)N3CCC(C)CC3)c2)=C(C)C1=O [Example 127, N-[5-(5,6-Dimethoxy-3-methyl-1,4-benzoquinon-2-yl)methyl-2-(3-pyridylmethyloxy)benzoyl]-4-methylpiperidine]
19 µM	COC1=C(OC)C(=O)C(Cc2ccc(OCc3cccnc3)c(C(=O)Nc3cc(OC)c(OC)c(OC)c3)c2)=C(C)C1=O [Example 128, N-[5-(5,6-Dimethoxy-3-methyl-1,4-benzoquinon-2-yl)methyl-2-(3-pyridylmethyloxy)benzoyl]-3,4,5-trimethoxyaniline]
20 µg/mL	COC1=C(OC)C(=O)C(Cc2ccc(O)c(C(=O)N(C)c3ccc(OC)cc3)c2)=C(C)C1=O [Example 164, N-Methyl-[5-(5,6-dimethoxy-3-methyl-1,4-benzoquinon-2-yl)methyl-2-hydroxybenzoyl]-4-methoxyaniline]
47 µg/mL	COC1=C(OC)C(=O)C(Cc2ccc(O)c(C(=O)Nc3ccc(N)cc3)c2)=C(C)C1=O [Example 204, N-[5-(5,6-Dimethoxy-3-methyl-1,4-benzoquinon-2-yl)methyl-2-hydroxybenzoyl]-p-phenylenediamine]

Compound	IC50
COC(=O)c1cc(CC2=C(C)C(=O)C(OC)=C(OC)C2=O)ccc1OCC(=O)OC(C)(C)C [Example 130, Methyl 5-(5,6-Dimethoxy-3-methyl-1,4-benzoquinon-2-yl)methyl-2-(tert-butoxycarbonylmethyloxy)benzoate]	59 µM
COC1=C(OC)C(=O)C(Cc2ccc(OC(C)=O)c(C(=O)N(C)c3ccc(OC)cc3)c2)=C(C)C1=O [Example 163, N-Methyl-[5-(5,6-dimethoxy-3-methyl-1,4-benzoquinon-2-yl)methyl-2-acetoxybenzoyl]-4-methoxyaniline]	30 µg/mL
COC1=C(OC)C(=O)C(Cc2ccc(OC(C)=O)c(C(=O)Nc3cccnc3)c2)=C(C)C1=O [Example 201, N-(Pyridin-3-yl)-5-(5,6-dimethoxy-3-methyl-1,4-benzoquinon-2-yl)methyl-2-acetoxybenzamide]	16 µg/mL
COC1=C(OC)C(=O)C(Cc2cccc(C(=O)Nc3cccnc3)c2OC(C)=O)=C(C)C1=O [Example 206, N-(Pyridin-3-yl)-3-(5,6-dimethoxy-3-methyl-1,4-benzoquinon-2-yl)methyl-2-acetoxybenzamide]	87 µg/mL
COC1=C(OC)C(=O)C(Cc2ccc(OC(C)=O)c(C(=O)Nc3cccnc3N3CCOCC3)c2)=C(C)C1=O [Example 222, N-(2-Morpholinopyridin-3-yl)-5-(5,6-dimethoxy-3-methyl-1,4-benzoquinon-2-yl)methyl-2-acetoxybenzamide]	77 µg/mL
COC1=C(OC)C(=O)C(Cc2ccc(OC(C)=O)c(C(=O)Nc3ccc(N4CCOCC4)nc3)c2)=C(C)C1=O [Example 224, N-(6-Morpholinopyridin-3-yl)-5-(5,6-dimethoxy-3-methyl-1,4-benzoquinon-2-yl)methyl-2-acetoxybenzamide]	24 µg/mL
COC1=C(OC)C(=O)C(Cc2ccc(OC(C)=O)c(C(=O)Nc3ccnc(Cl)c3)c2)=C(C)C1=O [Example 226, N-(2-Chloropyridin-4-yl)-5-(5,6-dimethoxy-3-methyl-1,4-benzoquinon-2-yl)methyl-2-acetoxybenzamide]	19 µg/mL

Test system: not given
Test: not given
Details: not given

Compound	melting point
COC1=C(OC)C(=O)C(Cc2ccc(C(=O)Nc3ccc(Cl)nc3)c(O)c2)=C(C)C1=O [Example 131, N-(6-Chloropyridin-3-yl)-4-(5,6-dimethoxy-3-methyl-1,4-benzoquinon-2-yl)methyl-2-hydroxybenzamide]	200.2 to 201.9 °C
COC1=C(OC)C(=O)C(Cc2ccc(C(=O)Nc3cccnc3Cl)c(OC(C)=O)c2)=C(C)C1=O [Example 132, N-(2-Chloropyridin-3-yl)-4-(5,6-dimethoxy-3-methyl-1,4-benzoquinon-2-yl)methyl-2-acetoxybenzamide]	113.5 to 115.1 °C
COC1=C(OC)C(=O)C(Cc2ccc(C(=O)Nc3cccnc3Cl)c(O)c2)=C(C)C1=O [Example 133]	200.2 to 202.6 °C
COC1=C(OC)C(=O)C(Cc2ccc(C(=O)Nc3ccc(OC)nc3)c(OC(C)=O)c2)=C(C)C1=O [Example 134, N-(6-Methoxypyridin-3-yl)-4-(5,6-dimethoxy-3-methyl-1,4-benzoquinon-2-yl)methyl-2-acetoxybenzamide]	124.7 to 125.5 °C
COC1=C(OC)C(=O)C(Cc2ccc(C(=O)Nc3ccc(OC)nc3)c(O)c2)=C(C)C1=O [Example 135, N-(6-Methoxypyridin-3-yl)-4-(5,6-dimethoxy-3-methyl-1,4-benzoquinon-2-yl)methyl-2-hydroxybenzamide]	194.3 to 196.5 °C
COC1=C(OC)C(=O)C(Cc2ccc(C(=O)Nc3ccc(S(=O)(=O)C(F)(F)F)cc3)c(O)c2)=C(C)C1=O [Example 137, N-[4-(5,6-Dimethoxy-3-methyl-1,4-benzoquinon-2-yl)methyl-2-hydroxybenzoyl]-4-(trifluoromethylsulfonyl)aniline]	186.9 to 187.5 °C
COC1=C(OC)C(=O)C(Cc2ccc(C(=O)Nc3cccnc3)c(OC(C)=O)c2)=C(C)C1=O [Example 138, N-(Pyridin-3-yl)-4-(5,6-dimethoxy-3-methyl-1,4-benzoquinon-2-yl)methyl-2-acetoxybenzamide]	158.2 to 160 °C
COC1=C(OC)C(=O)C(Cc2ccc(C(=O)Nc3cccnc3)c(O)c2)=C(C)C1=O [Example 139, N-(Pyridin-3-yl)-4-(5,6-dimethoxy-3-methyl-1,4-benzoquinon-2-yl)methyl-2-hydroxybenzamide]	138.1 to 139.7 °C
COC1=C(OC)C(=O)C(Cc2ccc(C(=O)Nc3ccncc3)c(O)c2)=C(C)C1=O [Example 140, N-(Pyridin-4-yl)-4-(5,6-dimethoxy-3-methyl-1,4-benzoquinon-2-yl)methyl-2-hydroxybenzamide]	181.4 to 183.3 °C
COC1=C(OC)C(=O)C(Cc2ccc(OC(C)=O)c(C(=O)Nc3ccc(F)cc3)c2)=C(C)C1=O [Example 141, N-[5-(5,6-Dimethoxy-3-methyl-1,4-benzoquinon-2-yl)methyl-2-acetoxybenzoyl]-4-fluoroaniline]	128.5 to 130.5 °C
COC1=C(OC)C(=O)C(Cc2ccc(OC(C)=O)c(C(=O)Nc3cccc([N+](=O)[O-])c3)c2)=C(C)C1=O [Example 143, N-[5-(5,6-Dimethoxy-3-methyl-1,4-benzoquinon-2-yl)methyl-2-acetoxybenzoyl]-3-nitroaniline]	152 to 153.5 °C
COC1=C(OC)C(=O)C(Cc2ccc(O)c(C(=O)Nc3cccc([N+](=O)[O-])c3)c2)=C(C)C1=O [Example 144, N-[5-(5,6-Dimethoxy-3-methyl-1,4-benzoquinon-2-yl)methyl-2-hydroxybenzoyl]-3-nitroaniline]	153 to 154 °C
COC1=C(OC)C(=O)C(Cc2ccc(OC(C)=O)c(C(=O)Nc3ccccc3C(F)(F)F)c2)=C(C)C1=O [Example 145, N-[5-(5,6-Dimethoxy-3-methyl-1,4-benzoquinon-2-yl)methyl-2-acetoxybenzoyl]-2-trifluoromethylaniline]	57.5 to 60 °C
COC1=C(OC)C(=O)C(Cc2ccc(OC(C)=O)c(C(=O)Nc3cccc(C(F)(F)F)c3)c2)=C(C)C1=O [Example 151, N-[5-(5,6-Dimethoxy-3-methyl-1,4-benzoquinon-2-yl)methyl-2-acetoxybenzoyl]-3-trifluoromethylaniline]	98 to 100 °C
